Experimental data published in US11952346B2, “Modulators of mas-related G-protein receptor X2 and related products and methods” (Escient Pharmaceuticals, Inc., priority 2020, dated 2024).
pIC50: −log10 of the molar value.

molecular target: T1, human MRGPRX2 (Homo sapiens, UniProt Q96LB1); assay: MRGPRX2 antagonist activity, IP-One HTRF assay in CHO cells expressing human MRGPRX2 versus Cortistatin-14; type: cell-based; conditions: not given
T1 construct: expressed in transfected cells
T1 sequence (Q96LB1 1-330): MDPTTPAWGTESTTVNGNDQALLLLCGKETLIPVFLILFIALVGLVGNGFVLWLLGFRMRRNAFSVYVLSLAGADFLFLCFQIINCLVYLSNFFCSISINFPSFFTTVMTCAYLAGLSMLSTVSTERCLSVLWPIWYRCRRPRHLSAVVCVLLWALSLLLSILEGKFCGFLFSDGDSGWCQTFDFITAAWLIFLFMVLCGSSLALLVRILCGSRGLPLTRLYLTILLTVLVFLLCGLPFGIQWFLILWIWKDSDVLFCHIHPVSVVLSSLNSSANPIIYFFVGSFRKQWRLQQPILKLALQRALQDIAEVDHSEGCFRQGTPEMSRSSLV
Experimental: CHO cells stably transfected to express human MRGPRX2 were maintained in an incubator at 37° C. with 5% CO2 and grown in F12 (HAM) media with 10% fetal bovine serum (FBS), 1% Glutamax, 1% penicillin/streptomycin, 800 μg/mL Geneticin (G418), and 300 μg/mL Hygromycin B. Cells were plated in a 384-well assay plate at 20,000 cells per well in 12 μL of Opti-MEM and kept in an incubator overnight. On the day of the assay, compounds solubilized at 10 mM in DMSO were added as a 10-point curve (30 uM final top concentration with 1:3 serial dilutions) using a Tecan D300E digital dispenser. Agonists were diluted in assay buffer (final concentrations of 5.7 mM Tris-HCl, 43 mM NaCl, 50 mM LiCI, pH=8) and 2 μL of the agonist Cortistatin-14 (CPC Scientific, catalog CORT-002) are added to each well. Final concentrations of agonists were […] Cortistatin-14. Final concentrations of DMSO were kept consistent across the plate. Plates were incubated in the dark for 1 hr at 37° C. and then for 1 hr at room temperature. IP-1 standards and HTRF detection reagents were added according to the IP-One—Gq Kit purchased from Cisbio (part number 621PAPEJ) and incubated in the dark for 1 hr at room temperature. The plate was read on a Molecular Devices SpectraMax iD5 plate reader. The HTRF ratio was calculated from the raw data and graphed using GraphPad Prism to calculate an IC50 value for each compound.
The activity ranges are denoted as follows: “+++++” denotes antagonist activity <100 nM; “++++” denotes antagonist activity between 100 and 500 nM; “+++” denotes activity between 501 and 1000 nM; “++” denotes activity between 1001 and 2500 nM; and “+” denotes activity >2500 nM.

Compound	pIC50
N#Cc1ccc(N[C@H]2CC[C@@H](NC(=O)c3ccc4nccn4c3)CC2)cc1C(F)(F)F [1-20]	6.30 to 7.00
Cn1nccc1C(=O)N[C@H]1CC[C@@H](Nc2ccc(C#N)c(C(F)(F)F)c2)CC1 [1-17]	6.30 to 7.00

same assay, conditions: CHO cells stably expressing human MRGPRX2; versus 0.3 uM Cortistatin-14 agonist; IP-1 HTRF readout; read-out: MRGPR2 Antagonist Activity

Compound	pIC50
COc1ccc(C(=O)N[C@H]2CC[C@@H](Nc3cc(C(F)(F)F)nc(N(C)C(C)C)n3)CC2)cc1 [3-1]	5.60 to 6.00
CN(C)c1ccc(C(=O)N[C@H]2CC[C@@H](Nc3ccc(C#N)c(C(F)(F)F)c3)CC2)c(F)c1 [1-13]	6.30 to 7.00
N#Cc1ccc(N[C@H]2CC[C@@H](NC(=O)c3csc(N)n3)CC2)cc1C(F)(F)F [1-15]	6.30 to 7.00
CNc1ccc(C(=O)N[C@H]2CC[C@@H](Nc3cc(C)c(C#N)c(C(F)(F)F)c3)CC2)cc1 [5-3]	> 7.00
N#Cc1ccc(N[C@H]2CC[C@@H](NC(=O)c3cn[nH]c3C3CC3)CC2)cc1C(F)(F)F [4-46]	> 7.00
Cc1cn(-c2ccc(C(=O)N[C@H]3CC[C@@H](Nc4ccc(C#N)c(C(F)(F)F)c4)CC3)cc2)cn1 [4-51]	> 7.00
Cc1cccc2[nH]cc(C(=O)N[C@H]3CC[C@@H](Nc4ccc(C#N)c(C(F)(F)F)c4)CC3)c12 [4-62]	> 7.00
CN1CCCc2c(C(=O)N[C@H]3CC[C@@H](Nc4cc(C(F)(F)F)nc(C(F)(F)F)c4)CC3)cccc21 [4-19]	5.60 to 6.00
CC1=NN(c2ccc(C(=O)N[C@H]3CC[C@@H](Nc4cc(C(F)(F)F)nc(C(F)(F)F)c4)CC3)cc2)C(=O)C1 [4-33]	6.30 to 7.00
Cc1cc(N[C@H]2CC[C@@H](NC(=O)c3ccc4cncn4c3)CC2)cc(C(F)(F)F)c1C#N [5-9]	> 7.00
CCNc1nc(N[C@H]2CC[C@@H](NC(=O)c3ccc(OC)cc3)CC2)cc(C(F)(F)F)n1 [Example 12, N-(1S,4S)-[4-[[2-(ethylamino)-6-(trifluoromethyl)pyrimidin-4-yl]amino]cyclohexyl]-4-methoxy-benzamide]	< 5.60
Cc1ccoc1C(=O)N[C@H]1CC[C@@H](Nc2cc(C(F)(F)F)nc(C(F)(F)F)c2)CC1 [1-5]	5.60 to 6.00
CC(C)S(=O)(=O)Nc1ccc(C(=O)N[C@H]2CC[C@@H](Nc3ccc(C#N)c(C(F)(F)F)c3)CC2)cc1 [1-14]	> 7.00
CC(=O)Nc1ccc(C(=O)N[C@H]2CC[C@@H](Nc3ccc(C#N)c(C(F)(F)F)c3)CC2)cc1 [4-48]	> 7.00
CN(CC(F)F)c1ccc(C(=O)N[C@H]2CC[C@@H](Nc3ccc(C#N)c(C(F)(F)F)c3)CC2)cc1 [4-54]	> 7.00
COc1ccc(C(=O)N[C@H]2CCC[C@@H](Nc3cc(C(F)(F)F)cc(C(F)(F)F)c3)C2)cc1 (stereo in doubt) [example 5, N-((1S,3R)-3-((3,5-bis(trifluoromethyl)phenyl)amino)cyclohexyl)-4-methoxybenzamide]	5.60 to 6.00
Cc1cc(N[C@H]2CC[C@@H](NC(=O)c3cnn(CC(F)(F)F)c3)CC2)cc(C(F)(F)F)c1C#N [5-5]	> 7.00
N#Cc1ccc(N[C@H]2CC[C@@H](NC(=O)c3ccc4cn[nH]c4c3)CC2)cc1C(F)(F)F [4-49]	> 7.00
COc1ccc(C(=O)NC2CCC(Nc3ccc(C#N)c(C(F)(F)F)c3)CC2)cc1 (stereo not shown) [Example 4, N-[4-[4-cyano-3-(trifluoromethyl)anilino]cyclohexyl]-4-methoxy-benzamide]	6.30 to 7.00
N#Cc1ccc(N[C@H]2CC[C@@H](NC(=O)c3cn[nH]c3C#N)CC2)cc1C(F)(F)F [4-56]	> 7.00
N#Cc1ccc(N[C@H]2CC[C@@H](NC(=O)c3cn[nH]c3Cl)CC2)cc1C(F)(F)F [4-45]	> 7.00
COc1cccc(C(=O)N[C@H]2CC[C@@H](Nc3ccc(C#N)c(C(F)(F)F)c3)CC2)c1 [1-23]	6.30 to 7.00

Now from value to molecule:

pIC50	Compound
6.30 to 7.00	CNc1ccc(C(=O)N[C@H]2CC[C@@H](Nc3cc(C(F)(F)F)nc(C(F)(F)F)c3)CC2)cc1 [4-4]
< 5.60	COc1ccc(C(=O)N[C@H]2CC[C@@H](Nc3cc(C(F)(F)F)cc(C(F)(F)F)c3)CC2)cc1 [Example 14, N-((1S,4S)-4-((3,5-bis(trifluoromethyl)phenyl)amino)cyclohexyl)-4-methoxybenzamide]
6.30 to 7.00	CNC(=O)Nc1cccc(C(=O)N[C@H]2CC[C@@H](Nc3cc(C(F)(F)F)nc(C(F)(F)F)c3)CC2)c1 [4-3]
< 5.60	O=C(N[C@H]1CC[C@@H](Nc2cc(C(F)(F)F)cc(C(F)(F)F)c2)CC1)c1ccccc1 [Example 13, N-((1S,4S)-4-((3,5-bis(trifluoromethyl)phenyl)amino)cyclohexyl)benzamide]
6.30 to 7.00	O=C(N[C@H]1CC[C@@H](Nc2cc(C(F)(F)F)nc(C(F)(F)F)c2)CC1)c1ccc(N2CCCC2)cc1 [4-41]
6.00 to 6.30	COc1ccc(C(=O)N[C@H]2CC[C@@H](Nc3ccc(F)c(C(F)(F)F)c3)CC2)cc1 [2-2]
6.30 to 7.00	COc1ccc(C(=O)N[C@H]2CC[C@@H](Nc3cc(C(F)F)nc(C(F)(F)F)c3)CC2)cc1 [4-43]
6.00 to 6.30	CN(C)c1nc(N[C@H]2CC[C@@H](NC(=O)c3ccccc3)CC2)cc(C(F)(F)F)n1 [1-10]
6.30 to 7.00	Cc1cc2[nH]cnc2cc1C(=O)N[C@H]1CC[C@@H](Nc2cc(C(F)(F)F)nc(C(F)(F)F)c2)CC1 [4-8]
6.30 to 7.00	O=C(N[C@H]1CC[C@@H](Nc2cc(C(F)(F)F)nc(C(F)(F)F)c2)CC1)c1c[nH]c2ccccc12 [4-22]
6.00 to 6.30	O=C(N[C@H]1CC[C@@H](Nc2cc(C(F)(F)F)nc(C(F)(F)F)c2)CC1)c1ccc2c(c1)CCCC2 [4-42]
5.60 to 6.00	O=C(N[C@H]1CC[C@@H](Nc2cc(C(F)(F)F)nc(Nc3ccccc3)n2)CC1)c1ccc(F)cc1 [Example 10, N-(1S,4S)-[4-[[2-anilino-6-(trifluoromethyl)pyrimidin-4-yl]amino}cyclohexyl]-4-fluoro-benzamide]
5.60 to 6.00	N#Cc1cccc(C(=O)N[C@H]2CC[C@@H](Nc3cc(C(F)(F)F)nc(C(F)(F)F)c3)CC2)c1 [1-4]
5.60 to 6.00	CN(C)c1nc(N[C@H]2CC[C@@H](NC(=O)c3cccc(C#N)c3)CC2)cc(C(F)(F)F)n1 [4-18]
6.00 to 6.30	CN(C)c1ccc(C(=O)N[C@H]2CC[C@@H](Nc3cc(C(F)(F)F)nc(N(C)C)n3)CC2)cc1 [4-17]
6.00 to 6.30	O=C(N[C@H]1CC[C@@H](Nc2cc(C(F)(F)F)nc(C(F)(F)F)c2)CC1)c1ccccc1 [example 3, N-((1S,4S)-4-((2,6-bis(trifluoromethyl)pyridin-4-yl)amino)cyclohexyl)benzamide]
6.00 to 6.30	O=C(N[C@H]1CC[C@@H](Nc2cc(C(F)(F)F)nc(C(F)(F)F)c2)CC1)c1ccc(Cl)cc1Cl [4-32]
6.30 to 7.00	CS(=O)(=O)Nc1cccc(C(=O)N[C@H]2CC[C@@H](Nc3cc(C(F)(F)F)nc(C(F)(F)F)c3)CC2)c1 [4-10]
6.00 to 6.30	CCn1nccc1C(=O)N[C@H]1CC[C@@H](Nc2cc(C(F)(F)F)nc(C(F)(F)F)c2)CC1 [4-12]
6.30 to 7.00	CN(C)c1cccc(C(=O)N[C@H]2CC[C@@H](Nc3cc(C(F)(F)F)nc(C(F)(F)F)c3)CC2)c1 [Example 15, N-(1S,4S)-[4-[[2,6-bis(trifluoromethyl)-4-pyridyl]amino]cyclohexyl]-3-(dimethylamino)benzamide]
6.00 to 6.30	CC(C)C(=O)Nc1cccc(C(=O)N[C@H]2CC[C@@H](Nc3cc(C(F)(F)F)nc(C(F)(F)F)c3)CC2)c1 [4-16]
5.60 to 6.00	O=C(N[C@H]1CC[C@@H](Nc2nc(C(F)(F)F)nc3c2CCCC3)CC1)c1ccc(F)cc1 [1-11]
6.00 to 6.30	O=C(N[C@H]1CC[C@@H](Nc2cc(Cl)nc(C(F)(F)F)c2)CC1)c1ccc(F)cc1 [Example 7, N-(1S,4S)-[4-[[2-chloro-6-(trifluoromethyl)-4-pyridyl]amino]cyclohexyl]-4-fluoro-benzamide]
6.30 to 7.00	CN(C)c1ccc(C(=O)N[C@H]2CC[C@@H](Nc3cc(C(F)(F)F)nc(C(F)(F)F)c3)CC2)cc1 [1-2]
> 7.00	N=C(N)Nc1ccc(C(=O)N[C@H]2CC[C@@H](Nc3cc(C(F)(F)F)nc(C(F)(F)F)c3)CC2)cc1 (single isomer, unassigned) [4-55]
< 5.60	N#Cc1ccc(C(=O)N[C@H]2CC[C@@H](Nc3cc(C(F)(F)F)nc(C(F)(F)F)c3)CC2)cc1 [4-13]
6.30 to 7.00	O=C(N[C@H]1CC[C@@H](Nc2cc(C(F)(F)F)nc(C(F)(F)F)c2)CC1)c1ccc(-n2cccn2)cc1 [4-31]
6.30 to 7.00	O=C(N[C@H]1CC[C@@H](Nc2cc(C(F)(F)F)nc(C(F)(F)F)c2)CC1)c1cccc2[nH]ccc12 [4-6]
